Assay results taken from ChEMBL document CHEMBL3991601, “The target landscape of clinical kinase drugs” (Science, 2017).
Counter-ions that a name gives are not always drawn. Active and inactive are the calls of the source.

Columns and labels:
[1] = target: T1, Peroxisomal acyl-coenzyme A oxidase 1 (Homo sapiens, UniProt Q15067)
T1 sequence (Q15067 whole entry): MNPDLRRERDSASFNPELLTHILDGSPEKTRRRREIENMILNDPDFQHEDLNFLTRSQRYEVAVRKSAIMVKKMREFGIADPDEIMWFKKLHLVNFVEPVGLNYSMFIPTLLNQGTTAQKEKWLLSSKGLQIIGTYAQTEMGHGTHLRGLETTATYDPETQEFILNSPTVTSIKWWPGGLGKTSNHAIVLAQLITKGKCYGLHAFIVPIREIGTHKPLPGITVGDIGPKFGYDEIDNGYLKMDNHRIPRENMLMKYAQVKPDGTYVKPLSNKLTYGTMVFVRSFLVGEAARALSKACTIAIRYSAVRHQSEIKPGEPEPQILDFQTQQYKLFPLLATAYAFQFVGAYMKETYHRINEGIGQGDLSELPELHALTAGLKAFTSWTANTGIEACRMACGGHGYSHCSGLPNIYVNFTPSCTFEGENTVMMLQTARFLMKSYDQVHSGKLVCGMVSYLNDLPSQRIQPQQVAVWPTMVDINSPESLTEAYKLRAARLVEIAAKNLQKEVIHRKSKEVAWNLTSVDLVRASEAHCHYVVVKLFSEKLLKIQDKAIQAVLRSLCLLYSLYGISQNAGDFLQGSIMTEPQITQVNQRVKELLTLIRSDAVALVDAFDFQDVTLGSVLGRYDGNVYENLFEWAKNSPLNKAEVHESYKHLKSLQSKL

[2] = target: T2, Breakpoint cluster region protein (Homo sapiens, UniProt P11274)
T2 sequence (P11274 whole entry): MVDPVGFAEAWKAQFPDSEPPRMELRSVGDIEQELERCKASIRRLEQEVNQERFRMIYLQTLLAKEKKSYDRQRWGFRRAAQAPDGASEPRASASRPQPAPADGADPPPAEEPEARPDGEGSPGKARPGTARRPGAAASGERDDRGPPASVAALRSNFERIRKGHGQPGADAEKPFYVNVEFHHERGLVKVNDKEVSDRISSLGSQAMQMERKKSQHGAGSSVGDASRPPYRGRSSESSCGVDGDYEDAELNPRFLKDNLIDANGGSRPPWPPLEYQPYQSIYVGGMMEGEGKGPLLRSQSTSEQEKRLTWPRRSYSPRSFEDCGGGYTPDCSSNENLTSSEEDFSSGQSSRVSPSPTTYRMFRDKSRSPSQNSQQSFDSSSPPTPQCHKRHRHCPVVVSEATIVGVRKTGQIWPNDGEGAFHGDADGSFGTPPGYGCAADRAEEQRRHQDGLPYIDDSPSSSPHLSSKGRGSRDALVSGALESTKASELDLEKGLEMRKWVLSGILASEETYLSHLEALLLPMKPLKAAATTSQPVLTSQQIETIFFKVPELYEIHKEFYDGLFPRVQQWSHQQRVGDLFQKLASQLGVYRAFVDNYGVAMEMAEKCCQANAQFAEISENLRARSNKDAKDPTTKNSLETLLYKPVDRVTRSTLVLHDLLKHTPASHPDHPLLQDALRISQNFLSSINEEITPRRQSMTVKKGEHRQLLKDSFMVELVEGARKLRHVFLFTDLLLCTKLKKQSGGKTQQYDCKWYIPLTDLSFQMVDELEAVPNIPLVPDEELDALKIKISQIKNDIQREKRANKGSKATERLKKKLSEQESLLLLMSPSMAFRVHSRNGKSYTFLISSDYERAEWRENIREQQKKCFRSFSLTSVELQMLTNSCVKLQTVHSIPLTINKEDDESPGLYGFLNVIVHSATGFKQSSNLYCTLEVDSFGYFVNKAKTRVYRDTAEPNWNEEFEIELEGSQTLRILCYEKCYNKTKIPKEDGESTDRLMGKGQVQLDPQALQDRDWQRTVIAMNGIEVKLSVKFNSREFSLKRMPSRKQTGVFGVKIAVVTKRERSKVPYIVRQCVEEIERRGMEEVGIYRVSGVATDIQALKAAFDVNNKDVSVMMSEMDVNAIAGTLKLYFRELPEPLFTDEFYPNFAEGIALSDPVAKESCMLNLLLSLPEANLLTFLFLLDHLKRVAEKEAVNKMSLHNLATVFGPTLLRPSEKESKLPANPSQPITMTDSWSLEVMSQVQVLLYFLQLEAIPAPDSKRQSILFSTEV

[3] = target: Tyrosine-protein kinase CSK (Homo sapiens, UniProt P41240)
[4] = target: T3, Dual specificity mitogen-activated protein kinase kinase 6 (Homo sapiens, UniProt P52564)
T3 sequence (P52564 whole entry): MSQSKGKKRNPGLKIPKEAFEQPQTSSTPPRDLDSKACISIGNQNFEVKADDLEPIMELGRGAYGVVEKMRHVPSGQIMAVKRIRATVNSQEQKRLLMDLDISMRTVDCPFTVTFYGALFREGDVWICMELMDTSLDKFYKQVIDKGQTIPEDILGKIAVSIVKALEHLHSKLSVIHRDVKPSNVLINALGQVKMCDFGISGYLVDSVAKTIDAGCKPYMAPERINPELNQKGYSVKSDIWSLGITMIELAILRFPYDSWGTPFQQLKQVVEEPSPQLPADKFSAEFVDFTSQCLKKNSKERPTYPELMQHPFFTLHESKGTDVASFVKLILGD

Measured: Kd
Further: in the data inactive means no Kd found up to 30 µM.

Sequence of Tyrosine-protein kinase CSK (P41240 whole entry): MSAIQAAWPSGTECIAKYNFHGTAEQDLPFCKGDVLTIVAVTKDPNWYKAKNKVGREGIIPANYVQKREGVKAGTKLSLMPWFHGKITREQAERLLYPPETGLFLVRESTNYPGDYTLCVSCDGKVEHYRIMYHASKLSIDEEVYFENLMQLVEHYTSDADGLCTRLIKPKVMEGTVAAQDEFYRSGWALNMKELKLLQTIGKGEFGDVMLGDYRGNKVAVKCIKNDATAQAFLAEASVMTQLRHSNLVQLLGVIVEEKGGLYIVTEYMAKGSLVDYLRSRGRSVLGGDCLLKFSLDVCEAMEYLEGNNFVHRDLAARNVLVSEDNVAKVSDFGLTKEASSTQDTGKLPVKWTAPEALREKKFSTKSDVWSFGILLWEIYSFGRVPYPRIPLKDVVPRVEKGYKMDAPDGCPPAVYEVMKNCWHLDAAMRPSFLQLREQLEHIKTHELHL

CCn1c(C(=O)N(C2CC2)C2CC2)cc2c3c(ncn3C)c(Nc3cc(C)n(C)n3)nc21 [BMS-911543]
inactive: [1] > 30 µM | [2] > 30 µM | [3] > 30 µM | [4] > 30 µM

Cc1cc(Nc2ncc(Cl)c(Nc3ccccc3S(=O)(=O)C(C)C)n2)c(OC(C)C)cc1C1CCNCC1 [CERITINIB]
inactive: [1] > 30 µM | [2] > 30 µM | [3] > 30 µM | [4] > 30 µM

COc1c(OCCCN2CCOCC2)ccc2c1N=C(NC(=O)c1cnc(N)nc1)N1CCN=C21 [COPANLISIB]
inactive: [1] > 30 µM | [2] > 30 µM | [3] > 30 µM | [4] > 30 µM

C#Cc1cccc(Nc2ncnc3cc(OC)c(OCCCCCCC(=O)NO)cc23)c1 [CUDC-101]
inactive: [1] > 30 µM | [2] > 30 µM | [3] > 30 µM | [4] > 30 µM

CCS(=O)(=O)N1CCN(c2ccc(Nc3ncc(C(N)=O)c(NC4CC4)n3)cc2)CC1 [Cerdulatinib Hydrochloride]
inactive: [1] > 30 µM | [2] > 30 µM | [3] > 30 µM | [4] > 30 µM

CC(C)(C)c1nc(-c2cccc(NS(=O)(=O)c3c(F)cccc3F)c2F)c(-c2ccnc(N)n2)s1 [DABRAFENIB]
inactive: [1] > 30 µM | [2] > 30 µM | [4] > 30 µM
active: [3] 0.851 µM

O=C(Nc1nc2cccc(-c3ccc(CN4CCS(=O)(=O)CC4)cc3)n2n1)C1CC1 [FILGOTINIB]
inactive: [1] > 30 µM | [2] > 30 µM | [3] > 30 µM | [4] > 30 µM

Cc1cccc(-c2nn3c(c2-c2ccnc4ccc(C(N)=O)cc24)CCC3)n1 [GALUNISERTIB]
inactive: [1] > 30 µM | [2] > 30 µM | [3] > 30 µM | [4] > 30 µM

CCn1cc(-c2ccnc3[nH]c(-c4cccc(CN(C)C)c4)cc23)c(-c2ccc(NC(=O)N(C)C)cc2)n1 [GSK-1070916]
inactive: [1] > 30 µM | [2] > 30 µM | [3] > 30 µM | [4] > 30 µM

O=C(Nc1cc(C(F)(F)F)cc(C(F)(F)F)c1)c1cc(Cl)ccc1O [IMD-0354]
inactive: [1] > 30 µM | [2] > 30 µM | [3] > 30 µM | [4] > 30 µM

CNC(=O)c1cccc2cc(Oc3ccnc4cc(OCC5(N)CC5)c(OC)cc34)ccc12 [LUCITANIB]
inactive: [1] > 30 µM | [2] > 30 µM | [3] > 30 µM | [4] > 30 µM

CNC(=O)c1nn(C)c2c1C(C)(C)Cc1cnc(Nc3ccc(N4CCN(C)CC4)cc3)nc1-2 [MILCICLIB]
inactive: [1] > 30 µM | [3] > 30 µM | [4] > 30 µM
active: [2] 0.685 µM

CN(C[C@@H]1COCCO1)S(=O)(=O)Nc1ccc2ccc3ncc(-c4cnn(C)c4)cc3c(=O)c2c1 [MK-2461]
inactive: [1] > 30 µM | [2] > 30 µM | [3] > 30 µM | [4] > 30 µM

Cn1cc(-c2cnc3ccc4ccc(CS(=O)(=O)NCc5ccccn5)cc4c(=O)c3c2)cn1 [MK-8033]
inactive: [1] > 30 µM | [2] > 30 µM | [3] > 30 µM | [4] > 30 µM

FC(F)(F)c1ccc(/C=C/c2nc(COc3ccc(CCCCn4ccnn4)cc3)co2)cc1 [MUBRITINIB]
inactive: [1] > 30 µM | [2] > 30 µM | [3] > 30 µM | [4] > 30 µM

Cc1[nH]c(/C=C2\C(=O)Nc3ccccc32)c(C)c1CCC(=O)O [ORANTINIB]
inactive: [1] > 30 µM | [2] > 30 µM | [3] > 30 µM | [4] > 30 µM

NC(=O)c1c(OCc2c(F)cc(Br)cc2F)nsc1NC(=O)NCCCCN1CCCC1 [OSI-632]
active: [2] 2.6 µM
inactive: [1] > 30 µM | [3] > 30 µM | [4] > 30 µM

CCOc1cc2ncc(C#N)c(Nc3ccc(F)c(Cl)c3)c2cc1NC(=O)/C=C/CN(C)C [PELITINIB]
active: [2] 1.19 µM
inactive: [1] > 30 µM | [3] > 30 µM | [4] > 30 µM
